Results from US20260374782A1, “NEW COMPOUNDS, PROCESSES FOR PREPARING THE SAME AND THEIR USE AS DRUGS” (B&A ONCOMEDICAL, priority 2022, published 2026).

Target: T1, NKCC1 (Homo sapiens, UniProt P55011)
T1 construct: endogenous in cells; host or cells: native HEK293 cells
T1 sequence (P55011 1-1212): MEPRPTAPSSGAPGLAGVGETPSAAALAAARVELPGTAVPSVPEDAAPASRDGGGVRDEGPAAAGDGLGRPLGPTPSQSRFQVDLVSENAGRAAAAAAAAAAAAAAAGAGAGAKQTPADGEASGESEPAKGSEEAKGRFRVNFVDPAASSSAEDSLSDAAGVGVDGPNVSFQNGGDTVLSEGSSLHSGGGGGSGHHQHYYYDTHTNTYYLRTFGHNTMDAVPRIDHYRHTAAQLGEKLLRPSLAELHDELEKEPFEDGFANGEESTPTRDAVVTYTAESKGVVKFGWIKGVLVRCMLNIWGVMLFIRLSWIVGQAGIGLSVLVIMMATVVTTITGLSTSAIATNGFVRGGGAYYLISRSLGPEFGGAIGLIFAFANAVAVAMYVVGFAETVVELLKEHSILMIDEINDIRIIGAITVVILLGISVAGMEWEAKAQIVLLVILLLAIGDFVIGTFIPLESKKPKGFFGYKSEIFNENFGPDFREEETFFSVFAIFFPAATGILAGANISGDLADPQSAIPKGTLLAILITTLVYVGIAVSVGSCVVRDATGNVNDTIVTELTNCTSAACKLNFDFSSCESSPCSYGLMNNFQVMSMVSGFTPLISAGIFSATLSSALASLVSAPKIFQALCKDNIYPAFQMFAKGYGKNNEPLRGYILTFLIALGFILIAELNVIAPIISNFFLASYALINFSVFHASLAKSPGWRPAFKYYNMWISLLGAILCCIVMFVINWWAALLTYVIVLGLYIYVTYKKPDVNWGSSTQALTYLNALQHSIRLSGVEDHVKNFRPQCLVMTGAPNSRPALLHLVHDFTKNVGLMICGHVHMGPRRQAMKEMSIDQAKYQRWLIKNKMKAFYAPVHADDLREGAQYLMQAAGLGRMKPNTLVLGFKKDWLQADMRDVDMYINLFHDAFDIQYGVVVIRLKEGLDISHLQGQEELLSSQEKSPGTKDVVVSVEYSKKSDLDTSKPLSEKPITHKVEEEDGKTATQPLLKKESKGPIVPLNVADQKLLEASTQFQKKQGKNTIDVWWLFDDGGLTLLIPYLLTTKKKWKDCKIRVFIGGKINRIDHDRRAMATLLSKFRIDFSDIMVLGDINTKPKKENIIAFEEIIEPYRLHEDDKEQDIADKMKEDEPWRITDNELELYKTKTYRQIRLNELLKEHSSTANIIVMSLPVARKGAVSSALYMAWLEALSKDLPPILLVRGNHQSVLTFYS
Test: NKCC1-mediated K+ influx (83Rb tracer uptake) in native HEK293 cells, hypertonic saline, 100 μM ouabain
Assay type: cell-based
Settings: HEK293, no drug = 1000, 20 μM bumetanide = 0; for inhibition at 2 µM: read-out: NKCC1 mediated flux inhibition at 2 μM (%); for inhibition at 20 µM: read-out: NKCC1 mediated flux inhibition at 20 μM (%)
Summary of the method: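 Native cells in slightly hypertonic saline with 100 μM ouabain; 15 min preincubation then 15 min 83Rb uptake (0.25 μCi/mL), scintillation counting normalized to protein. Compounds at 2 μM and 20 μM; flux scaled 1000 (no drug) to 0 (20 μM bumetanide), triplicate dishes.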

Row | Structure (SMILES) | inhibition at 2 µM [%] | inhibition at 20 µM [%]
1 | CCCCNc1cc(C(=O)OC)cc(S(=N)(=O)Nc2cccc(OC(F)F)c2)c1Oc1ccccc1 (stereo not shown) [Compound 28, methyl 3-(butylamino)-5-[[3-(difluoromethoxy)anilino]sulfonimidoyl]-4-phenoxy-benzoate] |  | 30 to 50
2 | CCCCNc1cc(C(=O)OC)cc(S(=N)(=O)Nc2cccc(Cl)c2)c1Oc1ccccc1 (stereo not shown) [Compound 22, methyl 3-(butylamino)-5-[(3-chloroanilino)sulfonimidoyl]-4-phenoxy-benzoate] | 30 to 50 | 30 to 50
3 | CCCCNc1cc(C(=O)OC)cc(S(=N)(=O)NCc2cccnc2)c1Oc1ccccc1 (stereo not shown) [Compound 36, methyl 3-(butylamino)-4-phenoxy-5-[(3-pyridylmethylamino)sulfonimidoyl]benzoate] |  | 30 to 50
4 | CCCCNc1cc(C(=O)O)cc(S(=N)(=O)NCC2CCCCC2)c1Oc1ccccc1 (stereo not shown) [Compound 62, 3-(butylamino)-5-[(cyclohexylmethylamino)sulfonimidoyl]-4-phenoxy-benzoic acid] | 10 to 30 | ≥ 75
5 | CCCCNc1cc(C(=O)OC)cc(S(=N)(=O)N2CCCCCC2)c1Oc1ccccc1 (stereo not shown) [Compound 11, methyl 3-(azepan-1-ylsulfonimidoyl)-5-(butylamino)-4-phenoxy-benzoate] |  | 50 to 75
6 | CCCCNc1cc(C(=O)OC)cc(S(=N)(=O)N(C)CC)c1Oc1ccccc1 (stereo not shown) [Compound 5, methyl 3-(butylamino)-5-[[ethyl(methyl)amino]sulfonimidoyl]-4-phenoxy-benzoate] |  | 50 to 75
7 | CCCCNc1cc(C(=O)O)cc(S(=N)(=O)NCC2CCOCC2)c1Oc1ccccc1 (stereo not shown) [Compound 63, 3-(butylamino)-4-phenoxy-5-[(tetrahydropyran-4-ylmethylamino)sulfonimidoyl]benzoic acid] |  | 30 to 50
8 | CCCCNc1cc(C(=O)O)cc(S(=N)(=O)N2CCCCCC2)c1Oc1ccccc1 (stereo not shown) [Compound 61, 3-(azepan-1-ylsulfonimidoyl)-5-(butylamino)-4-phenoxy-benzoic acid] | 30 to 50 | ≥ 75
9 | CCCCNc1cc(C(=O)OC)cc(S(=N)(=O)Nc2ccn(C)n2)c1Oc1ccccc1 (stereo not shown) [Compound 21, methyl 3-(butylamino)-5-[[(1-methylpyrazol-3-yl)amino]sulfonimidoyl]-4-phenoxy-benzoate] | 10 to 30 | 30 to 50
10 | CCCCNc1cc(C(=O)O)cc(S(=N)(=O)N2Cc3ccccc3C2)c1Oc1ccccc1 (stereo not shown) [Compound 72, 3-(butylamino)-5-(isoindolin-2-ylsulfonimidoyl)-4-phenoxy-benzoic acid] | 50 to 75 | ≥ 75

More lines, now with the values ahead:

Row | inhibition at 2 µM [%] | inhibition at 20 µM [%] | Structure (SMILES)
11 | 30 to 50 | ≥ 75 | CCCCN=S(C)(=O)c1cc(C(=O)O)cc(NCCCC)c1Oc1ccccc1 (stereo not shown) [Compound 131, 3-(butylamino)-5-(N-butyl-S-methyl-sulfonimidoyl)-4-phenoxy-benzoic acid]
12 | 30 to 50 | 10 to 30 | CCCCNc1cc(C(=O)N(C)C)cc(S(=N)(=O)Nc2ccccc2)c1Oc1ccccc1 (stereo not shown) [Compound 105, 3-(anilinosulfonimidoyl)-5-(butylamino)-N,N-dimethyl-4-phenoxy-benzamide]
13 | 10 to 30 | 10 to 30 | CCCCNc1cc(C(=O)O)cc(S(=O)(=Nc2ccccc2)N2CCCCCC2)c1Oc1ccccc1 (stereo not drawn) [Compound 101, 3-[S-(azepan-1-yl)-N-phenyl-sulfonimidoyl]-5-(butylamino)-4-phenoxy-benzoic acid]
14 | 30 to 50 | ≥ 75 | CCCCNc1cc(C(=O)O)cc(S(=N)(=O)Nc2ccnnc2)c1Oc1ccccc1 (stereo not shown) [Compound 93, 3-(butylamino)-4-phenoxy-5-[(pyridazin-4-ylamino)sulfonimidoyl]benzoic acid]
15 | 50 to 75 | ≥ 75 | CCCCNc1cc(C(=O)O)cc(S(=N)(=O)Nc2cccc(OC(F)F)c2)c1Oc1ccccc1 (stereo not shown) [Compound 74, 3-(butylamino)-5-[[3-(difluoromethoxy)anilino]sulfonimidoyl]-4-phenoxy-benzoic acid]
